Experimental data reported in patent publication US20100092526A1, “NANOEMULSION THERAPEUTIC COMPOSITIONS AND METHODS OF USING THE SAME” (NanoBio Corporation, priority 2008, published 2010).
Converted amounts (≈) assume the structure as drawn. Read-outs that look alike come from different tables or passages of the source.

Columns and labels:
Klebsiella pneumoniae = test: MIC/MBC of nanoemulsions against gram-negative isolates (CLSI, alamar blue); format: cell-based; conditions: Klebsiella pneumoniae (n = 5)
Escherichia coli = test: as above; format: cell-based; conditions: Escherichia coli (n = 5)
Proteus mirabilis = test: as above; format: cell-based; conditions: Proteus mirabilis (n = 5)
Acinetobacter baumannii [1] = test: as above; format: cell-based; conditions: Acinetobacter baumannii (n = 5)
Pseudomonas aeruginosa [2] = test: as above; format: cell-based; conditions: Pseudomonas aeruginosa (n = 5)
Burkholderia cepacia = test: as above; format: cell-based; conditions: Burkholderia cepacia (n = 5)
[3] = tested on: Stenotrophomonas maltophilia; test: as above; format: cell-based; conditions: Stenotrophomonas maltophilia (n = 5)
Pseudomonas aeruginosa [4] = test: MIC/MBC against CF isolates (CLSI, alamar blue); conditions: Pseudomonas aeruginosa
Burkholderia cenocepacia = test: MIC/MBC against CF isolates (CLSI, alamar blue); conditions: Burkholderia cenocepacia
[5] = tested on: Stenotrophomonas maltophilia; test: MIC/MBC against CF isolates (CLSI, alamar blue); conditions: Stenotrophomonas maltophilia
Acinetobacter baumannii [6] = test: MIC/MBC against clinical isolates (CLSI, alamar blue); conditions: Acinetobacter baumannii
[7] = nanoemulsions in the presence of 5 mM EDTA
[8] = nanoemulsions in the presence of 5 mM EDTA, in µg/mL
[9] = CF Stenotrophomonas isolate NB41
[10] = CF Stenotrophomonas isolate NB42
[11] = CF Stenotrophomonas isolate NB43
[12] = CF Stenotrophomonas isolate NB44
[13] = CF Stenotrophomonas isolate NB45
[14] = CF Stenotrophomonas isolate Steno 1
[15] = CF Stenotrophomonas isolate Steno 2
[16] = CF Stenotrophomonas isolate Steno 3
[17] = CF Stenotrophomonas isolate Steno 4
[18] = CF Stenotrophomonas isolate Steno 6
[19] = CF Stenotrophomonas isolate Steno 8

For `CC(C)(O/N=C(\C(=O)N[C@@H]1C(=O)N2C(C(=O)[O-])=C(C[n+]3ccccc3)CS[C@H]12)c1csc(N)n1)C(=O)O` [Ceftazidime], the “% resistant” value (Klebsiella pneumoniae) was 20.0%, the “% susceptible” value (Klebsiella pneumoniae) was 80.0% and the MIC50 (Klebsiella pneumoniae; [7]) was at most 1 µg/mL. For the same compound, the “% resistant” value (Escherichia coli) was 20.0%, the “% susceptible” value (Escherichia coli) was 80.0% and the MIC50 (Escherichia coli; [7]) was at most 1 µg/mL. For the same compound, the “% resistant” value (Proteus mirabilis) was 0.0%, the “% susceptible” value (Proteus mirabilis) was 100.0% and the MIC50 (Proteus mirabilis; [7]) was at most 1 µg/mL. For the same compound, the “MIC Range” value (Proteus mirabilis; [8]) was “<=1”, the “% resistant” value (Acinetobacter baumannii [1]) was 20.0% and the “% susceptible” value (Acinetobacter baumannii [1]) was 80.0%. For the same compound, the MIC50 (Acinetobacter baumannii [1]; [7]) was 4 µg/mL, the “% resistant” value (Pseudomonas aeruginosa [2]) was 0.0% and the “% susceptible” value (Pseudomonas aeruginosa [2]) was 100.0%. For the same compound, the MIC50 (Pseudomonas aeruginosa [2]; [7]) was 2 µg/mL, the “MIC Range” value (Pseudomonas aeruginosa [2]; [8]) was 2-4 and the “% resistant” value (Burkholderia cepacia) was 0.0%. For the same compound, the “% susceptible” value (Burkholderia cepacia) was 100.0%, the MIC50 (Burkholderia cepacia; [7]) was 2 µg/mL and the “MIC Range” value (Burkholderia cepacia; [8]) was 2-4. For the same compound, the “% resistant” value [3] was 40.0/40.0%, the “% susceptible” value [3] was 40.0/40.0% and the MIC50 [3, 7] was 16 µg/mL. The MBC (Pseudomonas aeruginosa [4]; CF Pseudomonas isolate NB12) was 512 µg/mL (≈ 937 µM), the MIC (Pseudomonas aeruginosa [4]; CF Pseudomonas isolate NB12) was 256 µg/mL (≈ 468 µM) and the MBC (Pseudomonas aeruginosa [4]; CF Pseudomonas isolate NB13) was 512 µg/mL (≈ 937 µM). For the same compound, the MIC (Pseudomonas aeruginosa [4]; CF Pseudomonas isolate NB13) was 512 µg/mL (≈ 937 µM), the MBC (Pseudomonas aeruginosa [4]; CF Pseudomonas isolate NB14) was over 1020 µg/mL and the MIC (Pseudomonas aeruginosa [4]; CF Pseudomonas isolate NB14) was 1020 µg/mL (≈ 1870 µM). It also gave an MBC (Pseudomonas aeruginosa [4]; CF Pseudomonas isolate NB15) of 512 µg/mL (≈ 937 µM), an MIC (Pseudomonas aeruginosa [4]; CF Pseudomonas isolate NB15) of 256 µg/mL (≈ 468 µM) and an MBC (Pseudomonas aeruginosa [4]; CF Pseudomonas isolate NB16) of over 1020 µg/mL. The MIC (Pseudomonas aeruginosa [4]; CF Pseudomonas isolate NB16) was 256 µg/mL (≈ 468 µM), the MBC (Pseudomonas aeruginosa [4]; CF Pseudomonas isolate NB19) was 1020 µg/mL (≈ 1870 µM) and the MIC (Pseudomonas aeruginosa [4]; CF Pseudomonas isolate NB19) was 512 µg/mL (≈ 937 µM). The MBC (Pseudomonas aeruginosa [4]; CF Pseudomonas isolate NB20) was 512 µg/mL (≈ 937 µM), the MIC (Pseudomonas aeruginosa [4]; CF Pseudomonas isolate NB20) was 256 µg/mL (≈ 468 µM) and the MBC (Burkholderia cenocepacia; CF Burkholderia isolate NB21) was over 32 µg/mL. The MIC (Burkholderia cenocepacia; CF Burkholderia isolate NB21) was 8 µg/mL (≈ 14.6 µM), the MBC (Burkholderia cenocepacia; CF Burkholderia isolate NB22) was over 32 µg/mL and the MIC (Burkholderia cenocepacia; CF Burkholderia isolate NB22) was 8 µg/mL (≈ 14.6 µM). The MBC (Burkholderia cenocepacia; CF Burkholderia isolate NB23) was over 32 µg/mL, the MIC (Burkholderia cenocepacia; CF Burkholderia isolate NB23) was over 32 µg/mL and the MBC (Burkholderia cenocepacia; CF Burkholderia isolate NB24) was 32 µg/mL (≈ 58.5 µM). It also gave an MIC (Burkholderia cenocepacia; CF Burkholderia isolate NB24) of 4 µg/mL (≈ 7.32 µM), an MBC (Burkholderia cenocepacia; CF Burkholderia isolate NB25) of 32 µg/mL (≈ 58.5 µM) and an MIC (Burkholderia cenocepacia; CF Burkholderia isolate NB25) of 16 µg/mL (≈ 29.3 µM). For the same compound, the MBC (Burkholderia cenocepacia; CF Burkholderia isolate NB26) was 32 µg/mL (≈ 58.5 µM), the MIC (Burkholderia cenocepacia; CF Burkholderia isolate NB26) was 16 µg/mL (≈ 29.3 µM) and the MBC (Burkholderia cenocepacia; CF Burkholderia isolate NB27) was 16 µg/mL (≈ 29.3 µM). The MIC (Burkholderia cenocepacia; CF Burkholderia isolate NB27) was 8 µg/mL (≈ 14.6 µM), the MBC (Burkholderia cenocepacia; CF Burkholderia isolate NB28b) was 16 µg/mL (≈ 29.3 µM) and the MIC (Burkholderia cenocepacia; CF Burkholderia isolate NB28b) was 16 µg/mL (≈ 29.3 µM). The MBC (Burkholderia cenocepacia; CF Burkholderia isolate NB29) was over 32 µg/mL, the MIC (Burkholderia cenocepacia; CF Burkholderia isolate NB29) was 4 µg/mL (≈ 7.32 µM) and the MBC (Burkholderia cenocepacia; CF Burkholderia isolate NB30) was 2 µg/mL (≈ 3.66 µM). It also gave an MIC (Burkholderia cenocepacia; CF Burkholderia isolate NB30) of 2 µg/mL (≈ 3.66 µM), an MIC50 [5] of over 32 µg/mL and an MIC90 [5] of over 32 µg/mL. The MBC [5, 9] was over 32 µg/mL, the MIC [5, 9] was over 32 µg/mL and the MBC [5, 10] was over 32 µg/mL. For the same compound, the MIC [5, 10] was 8 µg/mL (≈ 14.6 µM), the MBC [5, 11] was over 32 µg/mL and the MIC [5, 11] was over 32 µg/mL. The MBC [5, 12] was over 32 µg/mL, the MIC [5, 12] was over 32 µg/mL and the MBC [5, 13] was over 32 µg/mL. It also gave an MIC [5, 13] of over 32 µg/mL, an MBC [5, 14] of over 32 µg/mL and an MIC [5, 14] of over 32 µg/mL. The MBC [5, 15] was over 32 µg/mL, the MIC [5, 15] was over 32 µg/mL and the MBC [5, 16] was over 32 µg/mL. It also gave an MIC [5, 16] of over 32 µg/mL, an MBC [5, 17] of 16 µg/mL (≈ 29.3 µM) and an MIC [5, 17] of 2 µg/mL (≈ 3.66 µM). It also gave an MBC [5, 18] of over 32 µg/mL, an MIC [5, 18] of 32 µg/mL (≈ 58.5 µM) and an MBC [5, 19] of over 32 µg/mL. It also gave an MIC [5, 19] of 16 µg/mL (≈ 29.3 µM), an MBC ([5]; read-out: MBC 50, 11 CF Stenotrophomonas isolates) of over 32 µg/mL and an MIC50 (Acinetobacter baumannii [6]) of over 32 µg/mL. The MIC90 (Acinetobacter baumannii [6]) was over 32 µg/mL, the MBC (Acinetobacter baumannii [6]; Acinetobacter isolate NB31) was over 32 µg/mL and the MIC (Acinetobacter baumannii [6]; Acinetobacter isolate NB31) was over 32 µg/mL. It also gave an MBC (Acinetobacter baumannii [6]; Acinetobacter isolate NB32) of over 32 µg/mL, an MIC (Acinetobacter baumannii [6]; Acinetobacter isolate NB32) of over 32 µg/mL and an MBC (Acinetobacter baumannii [6]; Acinetobacter isolate NB33) of over 32 µg/mL. For the same compound, the MIC (Acinetobacter baumannii [6]; Acinetobacter isolate NB33) was over 32 µg/mL, the MBC (Acinetobacter baumannii [6]; Acinetobacter isolate NB34) was 32 µg/mL (≈ 58.5 µM) and the MIC (Acinetobacter baumannii [6]; Acinetobacter isolate NB34) was 32 µg/mL (≈ 58.5 µM). For the same compound, the MBC (Acinetobacter baumannii [6]; Acinetobacter isolate NB35) was over 32 µg/mL, the MIC (Acinetobacter baumannii [6]; Acinetobacter isolate NB35) was over 32 µg/mL and the MBC (Acinetobacter baumannii [6]; Acinetobacter isolate NB36) was 4 µg/mL (≈ 7.32 µM). It also gave an MIC (Acinetobacter baumannii [6]; Acinetobacter isolate NB36) of 2 µg/mL (≈ 3.66 µM), an MBC (Acinetobacter baumannii [6]; Acinetobacter isolate NB37) of 32 µg/mL (≈ 58.5 µM) and an MIC (Acinetobacter baumannii [6]; Acinetobacter isolate NB37) of 32 µg/mL (≈ 58.5 µM). It also gave an MBC (Acinetobacter baumannii [6]; Acinetobacter isolate NB38) of over 32 µg/mL, an MIC (Acinetobacter baumannii [6]; Acinetobacter isolate NB38) of over 32 µg/mL and an MBC (Acinetobacter baumannii [6]; Acinetobacter isolate NB39) of over 32 µg/mL. The MIC (Acinetobacter baumannii [6]; Acinetobacter isolate NB39) was 32 µg/mL (≈ 58.5 µM), the MBC (Acinetobacter baumannii [6]; Acinetobacter isolate NB40) was over 32 µg/mL and the MIC (Acinetobacter baumannii [6]; Acinetobacter isolate NB40) was over 32 µg/mL. The MBC (Acinetobacter baumannii [6]; read-out: MBC 50, 10 Acinetobacter isolates) was over 32 µg/mL.
